According to patent US20070259908A1, “Mitochondria Activators” (KANEKA CORPORATION, priority 2004, published 2007):

What was measured:
[1] = test system: tissue of the pancreatic islets of Langerhans; experiment: Insulin secretion from cultured tissue of the pancreatic islets of Langerhans (ELISA), as index of mitochondria-activating activity / ATP production; format: cell-based, rat; settings: for insulin concentration (secretion amount of insulin from tissue of the islets of Langerhans) / insulin concentration, value in parentheses (control = 100): 0.1 μg/ml of each test substance in medium, culture for 1 hr; for insulin concentration (secretion amount of insulin from tissue of the islets of Langerhans): ELISA, control 43 ± 8; for insulin concentration, value in parentheses (control = 100): relative to control (100); for increase of the concentration of insulin in the medium: addition amount of 0.1 μg/ml, versus control
Text: Therefore, a tissue of the pancreatic islets of Langerhans, which reacts with ATP to secrete insulin, was used to evaluate the mitochondria-activating activity of a test substance, with the insulin secretion as an index. As the tissue of the pancreatic islets of Langerhans, a culture kit (manufactured by Hokudo Co., Ltd) prepared from a rat was used. […] In the same manner as in Example 1, a tissue of the pancreatic islets of Langerhans was used to evaluate the mitochondria-activating activity of a test substance, with the insulin secretion as an index. As the tissue of the pancreatic islets of Langerhans, a culture kit (manufactured by Hokudo Co., Ltd) prepared from a rat was used.

kidney = settings: reported in patent reference 5; narrow safety margin; cited from earlier work
rats = settings: consecutive administration of 1200 mg/Kg/day for 52 weeks; cited from earlier work

Row | SMILES | insulin concentration (secretion amount of insulin from tissue of the islets of Langerhans) [1] | insulin concentration, value in parentheses (control = 100) [1] | increase of the concentration of insulin in the medium [1] | toxicity to kidney (kidney) | toxic effect in chronic toxicity test (rats)
1 | COC1=C(OC)C(=O)C(C/C=C(\C)CC/C=C(\C)CC/C=C(\C)CC/C=C(\C)CC/C=C(\C)CC/C=C(\C)CC/C=C(\C)CC/C=C(\C)CC/C=C(\C)CCC=C(C)C)=C(C)C1=O [oxidized coenzyme Q10, reference compound] | 329 ± 85 ng/mL | 765 | 7.7 fold |  | 
2 | O=C(O)CC(O)(CC(=O)O)C(=O)O [citric acid] | 2030 ± 391 ng/mL | 4720 | 47 fold |  | 
3 | O=C(O)c1cc(C(=O)O)c2c(n1)C(=O)C(=O)c1cc(C(=O)O)[nH]c1-2 [pyrroloquinoline quinone, 2,7,9-tricarboxy-1H-pyrrolo[2,3-f]quinoline-4,5-dione] | 220 ± 56 ng/mL | 511 | 5.1 fold | strong toxicity to kidney | 
4 | COc1c(O)c(C)c(C/C=C(\C)CC/C=C(\C)CC/C=C(\C)CC/C=C(\C)CC/C=C(\C)CC/C=C(\C)CC/C=C(\C)CC/C=C(\C)CC/C=C(\C)CCC=C(C)C)c(O)c1OC [reduced coenzyme Q10] | 360 ± 78 ng/mL | 837 | 8.3 fold |  | 
5 | COC1=C(OC)C(=O)C(C/C=C(\C)CC/C=C(\C)CC/C=C(\C)CC/C=C(\C)CC/C=C(\C)CC/C=C(\C)CC/C=C(\C)CC/C=C(\C)CC/C=C(\C)CCC=C(C)C)=C(C)C1=O [coenzyme Q10] |  |  |  |  | absence of toxic effect
